Source: ChEMBL document CHEMBL5036338, “Structural Insights into the Inhibition of Undecaprenyl Pyrophosphate Synthase from Gram-Positive Bacteria” (2021)
The source made the active and inactive calls. No cut-off for these calls is given here.

Key:
Staphylococcus aureus [1] = assay: Synergistic antibacterial activity against community acquired methicillin resistant Staphylococcus aureus USA300 incubated for 18 hrs by checkerboard broth microdilution assay; format: functional
Staphylococcus aureus [2] = assay: Synergistic antibacterial activity against community acquired methicillin resistant Staphylococcus aureus USA300 assessed as fractional inhibitory concentration incubated for 18 hrs by checkerboard broth microdilution assay; format: functional
Staphylococcus aureus [3] = assay: (§1) Synergistic antibacterial activity against community acquired methicillin resistant Staphylococcus aureus USA300 assessed as potentiation of cefuroxime-induced antibacterial activity by measuring cefuroxime MIC incubated for 18 hrs by checkerboard broth microdilution assay; format: functional
Staphylococcus aureus [4] = assay: as §1, with “fractional inhibitory concentration” for “MIC”; format: functional
Staphylococcus aureus [5] = assay: Synergistic antibacterial activity against community acquired methicillin resistant Staphylococcus aureus USA300 assessed as fractional inhibitory concentration index in presence of cefuroxime incubated for 18 hrs by checkerboard broth microdilution assay; format: functional
Staphylococcus aureus [6] = assay: Inhibition of Staphylococcus aureus UPPS using FPP and IPP as substrates preincubated for 20 mins followed by substrate addition

Row | SMILES | MIC (Staphylococcus aureus [1]) [µg/mL] | FIC (Staphylococcus aureus [2]) | MIC (Staphylococcus aureus [3]) [µg/mL] | FIC (Staphylococcus aureus [4]) | fractional inhibitory concentration index (FICI) (Staphylococcus aureus [5]) | inhibition (Staphylococcus aureus [6])
1 | CCc1cc(N2CCCCCCC2)n2ncc(-c3ccc(F)cc3)c2n1 | > 128 | 0.125 | > 32 | 0.0625 | 0.1875 | –
2 | Cc1cc(N2CCCCCC2)n2ncc(-c3ccc(F)cc3)c2n1 | > 128 | 0.0625 | > 32 | 0.0156 | 0.0781 | Active
3 | CCc1cc(N2CCCCCC2)n2ncc(-c3ccc(F)cc3)c2n1 | > 128 | 0.0312 | > 32 | 0.0156 | 0.0468 | –
4 | CCCc1cc(N2CCCCCC2)n2ncc(-c3ccc(F)cc3)c2n1 | > 128 | 0.0312 | > 32 | 0.0312 | 0.0625 | –
5 | Cc1cc(N2CCOCC2)n2ncc(-c3ccc(F)cc3)c2n1 | > 128 | 0.03125 | > 32 | 0.125 | 0.156 | –
6 | Cc1cc(N2CCCCCCC2)n2ncc(-c3ccc(F)cc3)c2n1 | > 128 | 0.0312 | > 32 | 0.0312 | 0.0625 | –
7 | Cc1cc(N2CCCCCC2)n2ncc(-c3cccc(F)c3)c2n1 | > 128 | 0.0625 | > 32 | 0.0312 | 0.0937 | –
8 | CCN(CC)CCOc1ccc(/C(=C(/Cl)c2ccccc2)c2ccccc2)cc1 [ENCLOMIPHENE] | 16 | 0.25 | 256 | 0.063 | 0.313 | –
